# Paper PMC5428509, “Irreversible inhibition of BTK kinase by a novel highly selective inhibitor CHMFL-BTK-11 suppresses inflammatory response in rheumatoid arthritis model” (Scientific Reports, 2017)
# Key:
# Assay in all cases: biochemical
# Set-up in all cases: KinomeScan competition binding panel (DiscoveRx), percent of control at 1 uM
# Settings in all cases: read-out: Percent Control
# FLT4 = FLT4 (Homo sapiens, UniProt P35916)
# Text: (§1) In order to further confirm the binding mode, we then tested the compounds in the BTK wild-type (wt) and BTK C481S mutant with immunoblotting by looking at the BTK Y551 auto-phosphorylation. […] In addition, a covalent bond was preferred to form between the […] acrylamide and Cys-481 near the hinge binding area, which further confirmed its irreversible binding mode (Fig. 1d). We next investigated CHMFL-BTK-11′s selectivity profile in 456 kinases/mutants with KinomeScan^TM technology.
# KIT(V559D,T670I) = KIT(V559D,T670I) (Homo sapiens, UniProt P10721, T670I/V559D)
# Text: as §1
# EPHA7 = EPHA7 (Homo sapiens, UniProt Q15375)
# Text: as §1
# LRRK2(G2019S) = LRRK2(G2019S) (Homo sapiens, UniProt Q5S007, G2019S)
# Text: as §1
# CAMK1 = CAMK1 (Homo sapiens, UniProt Q14012)
# Text: as §1
# [1] = biological target: T1, RPS6KA5(Kin.Dom.2-C-terminal) (Homo sapiens, UniProt O75582)
# T1 construct: Kin.Dom.2-C-terminal
# T1 sequence (O75582 whole entry): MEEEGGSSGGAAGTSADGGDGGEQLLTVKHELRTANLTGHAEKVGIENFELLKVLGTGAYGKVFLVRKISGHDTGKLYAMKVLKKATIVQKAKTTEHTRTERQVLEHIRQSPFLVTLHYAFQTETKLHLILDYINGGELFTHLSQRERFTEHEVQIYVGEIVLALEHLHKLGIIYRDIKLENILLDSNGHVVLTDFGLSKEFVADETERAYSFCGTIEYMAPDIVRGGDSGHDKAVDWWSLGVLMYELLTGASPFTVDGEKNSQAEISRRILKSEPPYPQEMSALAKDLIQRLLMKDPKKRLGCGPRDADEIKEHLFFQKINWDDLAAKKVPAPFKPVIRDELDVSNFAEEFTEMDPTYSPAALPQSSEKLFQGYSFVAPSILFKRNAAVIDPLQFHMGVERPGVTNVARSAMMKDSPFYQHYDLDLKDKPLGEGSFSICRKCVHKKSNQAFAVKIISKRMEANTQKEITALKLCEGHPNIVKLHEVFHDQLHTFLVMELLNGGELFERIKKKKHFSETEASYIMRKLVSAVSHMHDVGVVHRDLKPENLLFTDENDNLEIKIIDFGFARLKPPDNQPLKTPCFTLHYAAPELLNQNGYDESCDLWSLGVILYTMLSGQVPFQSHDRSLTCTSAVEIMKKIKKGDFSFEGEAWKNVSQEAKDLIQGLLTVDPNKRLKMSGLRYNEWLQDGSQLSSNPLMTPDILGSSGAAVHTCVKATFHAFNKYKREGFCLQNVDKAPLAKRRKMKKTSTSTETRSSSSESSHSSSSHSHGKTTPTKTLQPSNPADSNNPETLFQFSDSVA
# Text: as §1
# STK33 = STK33 (Homo sapiens, UniProt Q9BYT3)
# Text: as §1
# PIP5K2C = biological target: T2, PIP5K2C (Homo sapiens, UniProt Q8TBX8)
# T2 construct: gene PIP4K2C
# Text: as §1
# HIPK4 = HIPK4 (Homo sapiens, UniProt Q8NE63)
# Text: as §1
# HPK1 = biological target: T3, HPK1 (Homo sapiens, UniProt Q92918)
# T3 construct: gene MAP4K1
# T3 sequence (Q92918 whole entry): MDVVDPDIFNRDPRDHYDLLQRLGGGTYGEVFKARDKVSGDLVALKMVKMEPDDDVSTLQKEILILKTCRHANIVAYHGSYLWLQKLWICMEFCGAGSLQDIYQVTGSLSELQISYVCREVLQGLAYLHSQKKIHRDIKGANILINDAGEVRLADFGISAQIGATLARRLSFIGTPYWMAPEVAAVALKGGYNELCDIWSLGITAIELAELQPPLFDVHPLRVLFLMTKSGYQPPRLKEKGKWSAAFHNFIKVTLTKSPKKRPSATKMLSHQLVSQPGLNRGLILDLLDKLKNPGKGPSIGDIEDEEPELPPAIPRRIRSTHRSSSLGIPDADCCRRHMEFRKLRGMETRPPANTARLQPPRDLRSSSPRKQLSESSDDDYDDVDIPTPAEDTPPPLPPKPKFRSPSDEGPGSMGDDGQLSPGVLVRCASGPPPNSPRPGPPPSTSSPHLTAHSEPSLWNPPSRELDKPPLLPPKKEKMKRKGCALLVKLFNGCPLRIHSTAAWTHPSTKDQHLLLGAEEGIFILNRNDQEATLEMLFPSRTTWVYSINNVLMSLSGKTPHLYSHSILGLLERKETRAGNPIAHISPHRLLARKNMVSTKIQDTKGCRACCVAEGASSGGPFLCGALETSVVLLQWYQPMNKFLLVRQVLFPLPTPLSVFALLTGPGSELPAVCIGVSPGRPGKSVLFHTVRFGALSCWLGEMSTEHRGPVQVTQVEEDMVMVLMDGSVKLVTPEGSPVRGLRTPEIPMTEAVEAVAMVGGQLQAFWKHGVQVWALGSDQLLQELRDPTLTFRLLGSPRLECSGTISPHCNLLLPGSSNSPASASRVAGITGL
# Text: as §1
# TAOK2 = TAOK2 (Homo sapiens, UniProt Q9UL54)
# Text: as §1
# PCTK3 = biological target: T4, PCTK3 (Homo sapiens, UniProt Q07002)
# T4 construct: gene CDK18
# T4 sequence (Q07002 whole entry): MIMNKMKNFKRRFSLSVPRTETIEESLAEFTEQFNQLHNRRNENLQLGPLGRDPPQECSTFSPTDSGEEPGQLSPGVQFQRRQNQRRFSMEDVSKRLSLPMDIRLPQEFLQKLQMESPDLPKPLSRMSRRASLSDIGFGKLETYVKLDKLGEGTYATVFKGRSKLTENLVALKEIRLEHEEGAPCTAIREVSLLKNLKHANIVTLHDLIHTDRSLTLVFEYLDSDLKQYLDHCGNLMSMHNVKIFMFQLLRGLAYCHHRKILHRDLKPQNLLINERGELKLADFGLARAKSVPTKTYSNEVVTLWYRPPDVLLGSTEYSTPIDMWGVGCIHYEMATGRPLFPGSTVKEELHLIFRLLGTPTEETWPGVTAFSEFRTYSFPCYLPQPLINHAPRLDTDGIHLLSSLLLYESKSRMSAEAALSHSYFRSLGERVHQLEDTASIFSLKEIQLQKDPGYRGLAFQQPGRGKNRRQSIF
# Text: as §1
# CDK8 = CDK8 (Homo sapiens, UniProt P49336)
# Sequence of CDK8 (P49336 whole entry): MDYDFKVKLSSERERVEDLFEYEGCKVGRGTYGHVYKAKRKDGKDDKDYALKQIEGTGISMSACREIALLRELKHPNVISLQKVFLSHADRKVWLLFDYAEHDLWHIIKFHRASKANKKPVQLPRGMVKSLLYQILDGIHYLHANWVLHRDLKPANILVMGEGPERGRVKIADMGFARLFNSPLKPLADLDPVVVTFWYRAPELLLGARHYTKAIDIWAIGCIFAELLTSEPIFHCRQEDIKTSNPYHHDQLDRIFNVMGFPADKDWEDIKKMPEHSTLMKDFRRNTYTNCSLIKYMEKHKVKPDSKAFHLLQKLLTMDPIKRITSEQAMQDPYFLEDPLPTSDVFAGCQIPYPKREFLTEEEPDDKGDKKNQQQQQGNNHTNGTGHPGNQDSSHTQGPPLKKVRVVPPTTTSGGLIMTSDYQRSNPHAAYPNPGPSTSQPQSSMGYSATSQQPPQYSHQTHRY
# Text: as §1
# SRMS = SRMS (Homo sapiens, UniProt Q9H3Y6)
# Sequence of SRMS (Q9H3Y6 whole entry): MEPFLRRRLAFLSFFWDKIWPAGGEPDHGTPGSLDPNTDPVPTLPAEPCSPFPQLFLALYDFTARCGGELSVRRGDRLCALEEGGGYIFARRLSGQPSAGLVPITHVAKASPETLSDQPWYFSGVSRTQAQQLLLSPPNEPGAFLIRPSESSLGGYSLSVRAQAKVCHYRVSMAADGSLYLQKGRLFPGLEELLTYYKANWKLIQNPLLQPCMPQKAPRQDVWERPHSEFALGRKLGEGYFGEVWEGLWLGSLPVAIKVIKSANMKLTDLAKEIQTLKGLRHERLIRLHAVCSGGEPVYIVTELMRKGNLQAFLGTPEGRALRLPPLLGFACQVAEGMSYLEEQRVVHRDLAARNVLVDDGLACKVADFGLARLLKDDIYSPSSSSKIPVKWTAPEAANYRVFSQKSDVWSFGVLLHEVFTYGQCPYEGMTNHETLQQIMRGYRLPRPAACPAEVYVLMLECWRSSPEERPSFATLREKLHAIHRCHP
# Text: as §1
# SGK = biological target: T5, SGK (Homo sapiens, UniProt O00141)
# T5 construct: gene SGK1
# Text: as §1
# MUSK = MUSK (Homo sapiens, UniProt O15146)
# Text: as §1
# MAK = MAK (Homo sapiens, UniProt P20794)
# Text: as §1
# [2] = biological target: EGFR(L747-E749del, A750P) (Homo sapiens, UniProt P00533, A750P/DEL747-749)
# Sequence of EGFR(L747-E749del, A750P) (P00533 with tags, fused parts or gaps DEL747-749/A750P): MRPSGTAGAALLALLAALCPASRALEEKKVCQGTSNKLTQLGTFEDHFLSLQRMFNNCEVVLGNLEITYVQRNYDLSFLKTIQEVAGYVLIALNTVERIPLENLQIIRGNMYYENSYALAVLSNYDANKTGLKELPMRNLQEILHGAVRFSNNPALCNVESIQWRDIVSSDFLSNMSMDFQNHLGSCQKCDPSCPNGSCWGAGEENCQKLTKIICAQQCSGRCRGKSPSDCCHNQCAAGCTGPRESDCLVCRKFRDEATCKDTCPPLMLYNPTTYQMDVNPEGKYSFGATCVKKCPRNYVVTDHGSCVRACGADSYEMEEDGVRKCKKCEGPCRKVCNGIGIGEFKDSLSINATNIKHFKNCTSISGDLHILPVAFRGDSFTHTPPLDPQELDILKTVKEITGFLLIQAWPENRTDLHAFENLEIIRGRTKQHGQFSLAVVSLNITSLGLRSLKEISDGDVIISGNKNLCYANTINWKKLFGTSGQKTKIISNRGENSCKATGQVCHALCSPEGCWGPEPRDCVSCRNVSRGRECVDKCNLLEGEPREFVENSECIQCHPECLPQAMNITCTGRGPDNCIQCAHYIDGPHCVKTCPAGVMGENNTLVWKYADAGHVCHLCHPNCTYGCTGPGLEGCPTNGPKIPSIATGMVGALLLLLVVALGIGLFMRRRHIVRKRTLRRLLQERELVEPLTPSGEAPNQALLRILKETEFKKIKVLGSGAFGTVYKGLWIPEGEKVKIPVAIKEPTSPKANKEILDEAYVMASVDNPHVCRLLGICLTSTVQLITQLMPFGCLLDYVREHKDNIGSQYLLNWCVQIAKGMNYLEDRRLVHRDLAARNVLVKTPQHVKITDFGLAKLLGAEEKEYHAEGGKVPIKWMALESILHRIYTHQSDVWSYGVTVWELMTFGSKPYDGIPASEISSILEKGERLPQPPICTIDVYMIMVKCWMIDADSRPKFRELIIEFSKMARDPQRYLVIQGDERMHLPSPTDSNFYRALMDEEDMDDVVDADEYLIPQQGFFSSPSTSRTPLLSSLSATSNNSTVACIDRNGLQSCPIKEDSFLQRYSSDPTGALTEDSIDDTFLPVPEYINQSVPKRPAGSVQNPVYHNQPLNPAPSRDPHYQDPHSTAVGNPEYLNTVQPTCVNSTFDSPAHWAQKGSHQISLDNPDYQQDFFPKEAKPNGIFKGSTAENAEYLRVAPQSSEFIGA
# Text: as §1
# PAK7 = biological target: T6, PAK7 (Homo sapiens, UniProt Q9P286)
# T6 construct: gene PAK5
# Text: as §1
# BMPR1A = BMPR1A (Homo sapiens, UniProt P36894)
# Text: as §1
# FGFR3 = FGFR3 (Homo sapiens, UniProt P22607)
# Text: as §1
# GCN2(Kin.Dom.2,S808G) = biological target: T7, GCN2(Kin.Dom.2,S808G) (Homo sapiens, UniProt Q9P2K8, S808G)
# T7 construct: gene EIF2AK4; Kin.Dom.2
# Text: as §1
# CDKL3 = CDKL3 (Homo sapiens, UniProt Q8IVW4)
# Sequence of CDKL3 (Q8IVW4 whole entry): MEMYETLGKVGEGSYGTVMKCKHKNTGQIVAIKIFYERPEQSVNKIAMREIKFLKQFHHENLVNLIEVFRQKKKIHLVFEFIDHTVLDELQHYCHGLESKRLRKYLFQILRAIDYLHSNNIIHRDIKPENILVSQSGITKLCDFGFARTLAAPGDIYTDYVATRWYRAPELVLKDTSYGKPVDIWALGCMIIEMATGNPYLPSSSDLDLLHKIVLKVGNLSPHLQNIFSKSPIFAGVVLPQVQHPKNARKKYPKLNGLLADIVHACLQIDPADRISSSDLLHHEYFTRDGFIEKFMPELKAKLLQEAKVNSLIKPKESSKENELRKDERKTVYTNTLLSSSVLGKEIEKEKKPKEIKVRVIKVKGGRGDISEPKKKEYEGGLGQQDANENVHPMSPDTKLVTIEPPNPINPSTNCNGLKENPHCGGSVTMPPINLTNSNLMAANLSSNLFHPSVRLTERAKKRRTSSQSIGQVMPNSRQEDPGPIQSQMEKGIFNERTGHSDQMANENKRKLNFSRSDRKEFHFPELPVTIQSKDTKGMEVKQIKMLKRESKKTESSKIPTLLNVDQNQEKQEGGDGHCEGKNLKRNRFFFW
# Text: as §1
# FLT3(D835Y) = FLT3(D835Y) (Homo sapiens, UniProt P36888, D835Y)
# Text: as §1
compound,measurement,setting,value
C=CC(=O)Nc1cc(-n2c(=O)ccc3cnc4ccc(-n5cccn5)cc4c32)ccc1C [CHMFL-BTK-11],remaining binding at 1 µM,FLT4,100%
same,remaining binding at 1 µM,"KIT(V559D,T670I)",99%
same,remaining binding at 1 µM,EPHA7,97%
same,remaining binding at 1 µM,LRRK2(G2019S),95%
same,remaining binding at 1 µM,CAMK1,98%
same,remaining binding at 1 µM,[1],89%
same,remaining binding at 1 µM,STK33,89%
same,remaining binding at 1 µM,PIP5K2C,90%
same,remaining binding at 1 µM,HIPK4,94%
same,remaining binding at 1 µM,HPK1,94%
same,remaining binding at 1 µM,TAOK2,91%
same,remaining binding at 1 µM,PCTK3,90%
same,remaining binding at 1 µM,CDK8,91%
same,remaining binding at 1 µM,SRMS,88%
same,remaining binding at 1 µM,SGK,65%
same,remaining binding at 1 µM,MUSK,100%
same,remaining binding at 1 µM,MAK,100%
same,remaining binding at 1 µM,[2],73%
same,remaining binding at 1 µM,PAK7,100%
same,remaining binding at 1 µM,BMPR1A,100%
same,remaining binding at 1 µM,FGFR3,89%
same,remaining binding at 1 µM,"GCN2(Kin.Dom.2,S808G)",100%
same,remaining binding at 1 µM,CDKL3,90%
same,remaining binding at 1 µM,FLT3(D835Y),100%
